This is an account of results in patent US20250352587A1, “PROBIOTIC AND USE THEREOF” (priority 2023, published 2025).

One assay relates to Lsali-1. In words: Antibiotic susceptibility test, broth dilution MIC. In kind it is cell-based, Lactobacillus salivarius. The note with it: anaerobic, 37° C., 46-48 h; for MIC: Ligilactobacillus salivarius, read-out: MIC against Lsali-1. The protocol: (§1) According to the requirements for antibiotic susceptibility tests of anaerobic bacteria in “Technical specification on antimicrobial susceptibility tests” (Standard No. WS/T 639-2018) of the People's Republic of China Health Industry Standard, the susceptibility of the strains to antibiotics was determined by a broth dilution method, and the MIC values were recorded.
(§2) 0.1 mL of the prepared 5 bacterial suspensions were sequentially pipetted into 96-well plates containing equal volumes of prepared antibacterial drugs, such that the final concentration of the inoculated bacteria was 5×10^5 CFU/mL, and the drug concentrations were 256 μg/mL, 128 μg/mL, 64 μg/mL, 32 μg/mL, 16 μg/mL, 8 μg/mL, 4 μg/mL, 2 μg/mL, 1 μg/mL, 0.5 μg/mL, 0.25 μg/mL, and 0.125 μg/mL, respectively. Incubation: The above 96-well plates were anaerobically incubated in an incubator at 37° C. for 46-48 h.

Another assay relates to Pdist-1. In words: Antibiotic susceptibility test, broth dilution MIC. It counts as cell-based, Parabacteroides distasonis. To be noted: for MIC: Parabacteroides distasonis, read-out: MIC against Pdist-1. As for the experimental part:
as §1, §2

Another assay relates to Eaviu-1. Description: Antibiotic susceptibility test, broth dilution MIC. In kind it is cell-based, Enterococcus avium. The note with it: for MIC: Enterococcus avium, read-out: MIC against Eaviu-1. The protocol: as §1, §2
The next assay concerns Lferm-1. In words: Antibiotic susceptibility test, broth dilution MIC. In kind it is cell-based, Limosilactobacillus fermentum. The note with it: for MIC: Limosilactobacillus fermentum, read-out: MIC against Lferm-1. As for the experimental part: as §1, §2
The next assay deals with Bbifi-1. Description: Antibiotic susceptibility test, broth dilution MIC. In kind it is cell-based, Bifidobacterium bifidum. To be noted: for MIC: Bifidobacterium bifidum, read-out: MIC against Bbifi-1. The protocol: as §1, §2
Another assay relates to colon injury. In words: Colon histopathology (HE staining) in mice with 5-FU-induced diarrhea. It counts as in vivo. The note with it: panels 1A and 2A in FIG. 13. As for the experimental part:
After the animal experiment, the middle colon of the mice was collected and fixed in 4% paraformaldehyde for 24 h. The fixed colon tissues were sequentially dehydrated, transparentized, waxed, and embedded. The embedded paraffin blocks of colon tissues were sectioned at a thickness of 5 μm, followed by spreading and baking, and the dried sections were subjected to conventional HE staining. The pathological changes were observed under an optical microscope. Pathological scoring was performed according to Table 6 below, and the total pathological scores (the sum of the scores of all indices) were calculated.

The mark [1] stands for this setting: broth dilution, anaerobic, 37° C., 46-48 h.

In brackets after ≈: the same amount, converted by molar mass. Like-named read-outs stand apart in the source and are kept apart here. A value given as a limit tells only on which side of the number the result lay.

As to Gentamicin, in the assay on Lsali-1, the “MIC against Lsali-1” value stood at 16 µg/mL. The “MIC against Pdist-1” value in the assay on Pdist-1 (setting [1]) is under 0.125 µg/mL. The “MIC against Eaviu-1” value with Eaviu-1 (setting [1]) was 8 µg/mL. For the same molecule, the “MIC against Lferm-1” value with Lferm-1 (setting [1]) worked out at 0.125 µg/mL. Further, the “MIC against Bbifi-1” value in the assay on Bbifi-1 (setting [1]) turned out to be 8 µg/mL.

Penicillin: in the assay with Pdist-1 (setting [1]), the “MIC against Pdist-1” value turned out to be 8 µg/mL.

Turning to `O=C(N[C@H](CO)[C@H](O)c1ccc([N+](=O)[O-])cc1)C(Cl)Cl` [Chloramphenicol], the MIC with Lsali-1 was 256 µg/mL (≈ 792 µM); with Eaviu-1 (setting [1]), 128 µg/mL (≈ 396 µM); with Lferm-1 (setting [1]), 0.125 µg/mL (≈ 0.387 µM); with Bbifi-1 (setting [1]), 8 µg/mL (≈ 24.8 µM).

With `CC1(C)S[C@@H]2[C@H](NC(=O)[C@H](N)c3ccccc3)C(=O)N2[C@H]1C(=O)O` [Ampicillin], the MIC turned out to be 4 µg/mL (≈ 11.4 µM) in the assay with Lsali-1; 8 µg/mL (≈ 22.9 µM) in the assay on Pdist-1 (setting [1]); 4 µg/mL (≈ 11.4 µM) in the assay with Eaviu-1 (setting [1]); 0.5 µg/mL (≈ 1.43 µM) with Lferm-1 (setting [1]); 0.25 µg/mL (≈ 0.715 µM) in the assay on Bbifi-1 (setting [1]).

Regarding `[H]/N=C(/N)N[C@H]1[C@H](O)[C@@H](O)[C@H](O[C@@H]2O[C@@H](C)[C@](O)(C=O)[C@H]2O[C@@H]2O[C@@H](CO)[C@H](O)[C@@H](O)[C@@H]2NC)[C@@H](N/C(N)=N\[H])[C@@H]1O` [Streptomycin], the MIC was 128 µg/mL (≈ 220 µM) in the assay with Lsali-1; under 0.125 µg/mL in the assay on Pdist-1 (setting [1]); 128 µg/mL (≈ 220 µM) in the assay on Eaviu-1 (setting [1]); 0.125 µg/mL (≈ 0.215 µM) in the assay on Lferm-1 (setting [1]); 128 µg/mL (≈ 220 µM) in the assay with Bbifi-1 (setting [1]).

`CC[C@H]1OC(=O)[C@H](C)[C@@H](O[C@H]2C[C@@](C)(OC)[C@@H](O)[C@H](C)O2)[C@H](C)[C@@H](O[C@@H]2O[C@H](C)C[C@H](N(C)C)[C@H]2O)[C@](C)(O)C[C@@H](C)C(=O)[C@H](C)[C@@H](O)[C@]1(C)O` [Erythromycin]: the MIC with Lsali-1 is 0.125 µg/mL (≈ 0.17 µM); in the assay on Pdist-1 (setting [1]) it was 32 µg/mL (≈ 43.6 µM); with Eaviu-1 (setting [1]), 0.25 µg/mL (≈ 0.341 µM); in the assay with Lferm-1 (setting [1]) it was under 0.125 µg/mL; with Bbifi-1 (setting [1]), 0.125 µg/mL (≈ 0.17 µM).

Turning to `CN[C@H](CC(C)C)C(=O)N[C@H]1C(=O)N[C@@H](CC(N)=O)C(=O)N[C@H]2C(=O)N[C@H]3C(=O)N[C@H](C(=O)N[C@H](C(=O)O)c4cc(O)cc(O)c4-c4cc3ccc4O)[C@H](O)c3ccc(c(Cl)c3)Oc3cc2cc(c3O[C@@H]2O[C@H](CO)[C@@H](O)[C@H](O)[C@H]2O[C@H]2C[C@](C)(N)[C@H](O)[C@H](C)O2)Oc2ccc(cc2Cl)[C@H]1O` [Vancomycin], the MIC in the assay with Pdist-1 was determined as 8 µg/mL (≈ 5.52 µM); with Eaviu-1, 2 µg/mL (≈ 1.38 µM); with Lferm-1 it was 0.125 µg/mL (≈ 0.0863 µM); in the assay on Bbifi-1, 1 µg/mL (≈ 0.69 µM).

On to `CCC[C@@H]1C[C@@H](C(=O)N[C@@H]([C@H]2O[C@H](SC)[C@H](O)[C@@H](O)[C@H]2O)[C@H](C)Cl)N(C)C1` [Clindamycin], for which the MIC with Lsali-1 is 8 µg/mL (≈ 18.8 µM); in the assay with Pdist-1 (setting [1]), 16 µg/mL (≈ 37.6 µM); in the assay with Eaviu-1 (setting [1]), 4 µg/mL (≈ 9.41 µM); in the assay on Lferm-1 (setting [1]), under 0.125 µg/mL; in the assay on Bbifi-1 (setting [1]) it was 1 µg/mL (≈ 2.35 µM).

As to `CN(C)[C@@H]1C(O)=C(C(N)=O)C(=O)[C@@]2(O)C(O)=C3C(=O)c4c(O)cccc4[C@@](C)(O)[C@H]3C[C@@H]12` [Tetracycline], the MIC with Lsali-1 was 0.5 µg/mL (≈ 1.13 µM); in the assay on Pdist-1 (setting [1]) it was 8 µg/mL (≈ 18 µM); in the assay on Eaviu-1 (setting [1]), 0.5 µg/mL (≈ 1.13 µM); in the assay with Lferm-1 (setting [1]) it was under 0.125 µg/mL; with Bbifi-1 (setting [1]), 0.125 µg/mL (≈ 0.281 µM).

For the molecule `C[C@H]1COc2c(N3CCN(C)CC3)c(F)cc3c(=O)c(C(=O)O)cn1c23` [Levofloxacin], in the assay on Pdist-1 (setting [1]), the MIC was 8 µg/mL (≈ 22.1 µM).

In the case of `CN(C)C(=O)C(CCN1CCC(O)(c2ccc(Cl)cc2)CC1)(c1ccccc1)c1ccccc1` [loperamide], in the assay with colon injury, the “colon histopathological observation (HE staining)” value was “the colon structure was relatively intact, mucosal epithelial cells showed no significant necrosis, the number of goblet cells was significantly increased, and only a small amount of lymphocyte infiltration was observed in the lamina propria”.

With `NC[C@H]1O[C@H](O[C@H]2[C@H](O)[C@@H](O[C@H]3O[C@H](CO)[C@@H](O)[C@H](N)[C@H]3O)[C@H](N)C[C@@H]2N)[C@H](O)[C@@H](O)[C@@H]1O` [Kanamycin], the minimum inhibitory concentration (MIC) in the assay on Lsali-1 worked out at 256 µg/mL (≈ 528 µM).

Take `CO[C@H]1/C=C/O[C@@]2(C)Oc3c(C)c(O)c4c(O)c(c(/C=N/N5CCN(C)CC5)c(O)c4c3C2=O)NC(=O)/C(C)=C\C=C\[C@H](C)[C@H](O)[C@@H](C)[C@@H](O)[C@@H](C)[C@H](OC(C)=O)[C@@H]1C` [Rifampicin]: the MIC in the assay with Pdist-1 (setting [1]) was under 0.125 µg/mL.

In the case of `C[C@@H](O)[C@H]1C(=O)N2C(C(=O)O)=C(SCCN=CN)C[C@H]12` [Imipenem], the MIC in the assay on Pdist-1 (setting [1]) was 16 µg/mL (≈ 53.4 µM).

With `CO/N=C(\C(=O)N[C@@H]1C(=O)N2C(C(=O)O)=C(CSc3nc(=O)c(=O)[nH]n3C)CS[C@H]12)c1csc(N)n1` [Ceftriaxone], the MIC in the assay on Pdist-1 (setting [1]) turned out to be 16 µg/mL (≈ 28.9 µM).
